Read-outs that look alike come from different tables or passages of the source. Blank lines part the entries; values can stand above or below the compound they belong to.
Columns and labels:
p53 = p53 level ELISA in MCF-7 cells; type: cell-based, human; settings: for p53 FLD: MCF-7, at IC50, fold of control cells; for p53 Conc.(pg/ml): MCF-7, at IC50, control 257 ± 19.1
Description: p53 level was determined in MCF-7 cell line using Human p53 ELISA Kit (Sigma Aldrich, St. Louis, MO, USA). The cells were lysed using cell extraction buffer. Cell lysate was diluted with standard diluent buffer, then added to p53 monoclonal antibody pre-coated 96-wells plate. The plate incubated for 2 h at room temperature. Anti-p53 detection antibody was added to the plate and re-incubated at room temperature for 1 h. The plate washed four times using wash buffer followed by addition of anti-rabbit IgG-Horseradish Peroxidase (HRP) working solution. The plate incubated at room temperature for 30 min. Chromogen TMB (tetramethylbenzidine) was added to induce colour reaction. The absorbance of the plate was read at 450 nm using microplate reader (Bio-Rad Laboratories, Hercules, CA, USA). Three independent experiments were performed for each compound and Mean ± SE were calculated.

topoisomerase IIα = molecular target: T1, topoisomerase IIα (Homo sapiens, UniProt P11388); experiment: Topoisomerase IIα inhibitory activity (ELISA kit); type: cell-based; settings: MCF-7 cell line; for % inhibition of topoisomerase IIα activity: compounds at their IC50, compared to control
T1 construct: it decreases the concentration of topoisomerase iIα in MCF-7 cell line to 1.043 ± 0.10 ng/ml; endogenous in cells; host or cells: MCF-7
T1 sequence (P11388 whole entry): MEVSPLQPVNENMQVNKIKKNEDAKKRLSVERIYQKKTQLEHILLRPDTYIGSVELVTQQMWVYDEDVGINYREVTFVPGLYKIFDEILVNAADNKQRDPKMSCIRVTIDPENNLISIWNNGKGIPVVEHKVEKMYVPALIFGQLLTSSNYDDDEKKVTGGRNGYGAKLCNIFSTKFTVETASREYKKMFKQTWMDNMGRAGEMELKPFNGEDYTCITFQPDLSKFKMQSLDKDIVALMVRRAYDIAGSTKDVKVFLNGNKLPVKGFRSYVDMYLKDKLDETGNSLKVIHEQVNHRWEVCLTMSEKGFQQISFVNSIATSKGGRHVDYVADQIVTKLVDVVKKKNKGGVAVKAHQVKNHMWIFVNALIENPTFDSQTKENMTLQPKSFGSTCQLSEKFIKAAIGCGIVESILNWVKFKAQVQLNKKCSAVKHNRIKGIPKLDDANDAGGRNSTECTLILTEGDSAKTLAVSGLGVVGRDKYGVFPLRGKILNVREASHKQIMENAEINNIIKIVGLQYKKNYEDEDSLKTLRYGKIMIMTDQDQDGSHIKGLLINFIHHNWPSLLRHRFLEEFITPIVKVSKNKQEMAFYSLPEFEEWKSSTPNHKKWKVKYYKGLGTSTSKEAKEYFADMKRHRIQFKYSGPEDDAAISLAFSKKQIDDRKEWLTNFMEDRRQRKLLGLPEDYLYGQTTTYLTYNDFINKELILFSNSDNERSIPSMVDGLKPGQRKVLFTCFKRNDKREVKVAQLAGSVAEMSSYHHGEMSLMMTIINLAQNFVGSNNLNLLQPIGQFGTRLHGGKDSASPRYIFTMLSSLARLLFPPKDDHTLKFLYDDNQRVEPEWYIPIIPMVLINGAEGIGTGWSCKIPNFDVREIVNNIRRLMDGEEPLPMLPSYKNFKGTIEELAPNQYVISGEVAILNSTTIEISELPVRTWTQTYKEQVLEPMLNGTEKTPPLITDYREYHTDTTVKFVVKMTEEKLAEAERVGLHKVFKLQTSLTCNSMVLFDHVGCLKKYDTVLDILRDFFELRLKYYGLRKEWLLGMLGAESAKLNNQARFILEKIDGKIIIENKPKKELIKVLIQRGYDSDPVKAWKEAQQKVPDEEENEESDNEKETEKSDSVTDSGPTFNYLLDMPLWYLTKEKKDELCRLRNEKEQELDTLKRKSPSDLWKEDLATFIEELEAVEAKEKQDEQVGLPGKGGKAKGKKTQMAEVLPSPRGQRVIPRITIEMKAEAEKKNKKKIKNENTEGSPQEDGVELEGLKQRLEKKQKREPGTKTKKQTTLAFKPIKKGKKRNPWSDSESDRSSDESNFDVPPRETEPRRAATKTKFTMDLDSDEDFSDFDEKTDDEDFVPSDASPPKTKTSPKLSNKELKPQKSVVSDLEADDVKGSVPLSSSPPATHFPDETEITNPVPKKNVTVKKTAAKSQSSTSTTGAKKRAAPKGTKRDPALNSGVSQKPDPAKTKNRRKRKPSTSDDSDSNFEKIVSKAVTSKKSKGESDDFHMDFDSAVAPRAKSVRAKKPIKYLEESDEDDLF
Description: Biotin-conjugated antibody was added to each well followed by incubation at 37 °C for 1 h, then the plates were aspirated. Avidin conjugated Horseradish Peroxidase (HRP avidin) solution was added to each well, incubated again at 37 °C for 1 h. TMB substrate was added to the wells and the plate was incubated at 37 °C for 30 min at dark place. The absorbance was read using spectrophotometer at a wavelength of 450 nm.

caspase-7 = experiment: Caspase-7 ELISA in MCF-7 cells; type: cell-based, human; settings: for Caspase 7 FLD: MCF-7, at IC50, fold of control; for Caspase 7 Conc.(ng/ml): MCF-7, at IC50, control 0.45 ± 0.03
Description: (§1) The effect of 6a, 6c and 6i hybrids on caspase-7 and −9 levels in MCF-7 cell line was measured using Human Caspase-7 ELISA Kit (BioVision Inc., Milpitas, CA 95035 USA) and Human Caspase-9 ELISA Kit (EIA-4860, DRG, USA), respectively, and according to the manufacturer’s instructions. The results were expressed as Mean ± SE of three independent experiments.

caspase-9 = experiment: Caspase-9 ELISA in MCF-7 cells; type: cell-based, human; settings: for Caspase 9 FLD: MCF-7, at IC50, fold of control; for Caspase 9 Conc.(pg/ml): MCF-7, at IC50, control 4.51 ± 0.29
Description: as §1

EGFR = molecular target: T2, EGFR (Homo sapiens, UniProt P00533); experiment: EGFR kinase assay kit; type: biochemical; settings: mean ± SE; read-out: EGFR inhibitory activity IC50
T2 construct: purchased BPS Bioscience, San Diego, CA, USA
T2 sequence (P00533 25-1210): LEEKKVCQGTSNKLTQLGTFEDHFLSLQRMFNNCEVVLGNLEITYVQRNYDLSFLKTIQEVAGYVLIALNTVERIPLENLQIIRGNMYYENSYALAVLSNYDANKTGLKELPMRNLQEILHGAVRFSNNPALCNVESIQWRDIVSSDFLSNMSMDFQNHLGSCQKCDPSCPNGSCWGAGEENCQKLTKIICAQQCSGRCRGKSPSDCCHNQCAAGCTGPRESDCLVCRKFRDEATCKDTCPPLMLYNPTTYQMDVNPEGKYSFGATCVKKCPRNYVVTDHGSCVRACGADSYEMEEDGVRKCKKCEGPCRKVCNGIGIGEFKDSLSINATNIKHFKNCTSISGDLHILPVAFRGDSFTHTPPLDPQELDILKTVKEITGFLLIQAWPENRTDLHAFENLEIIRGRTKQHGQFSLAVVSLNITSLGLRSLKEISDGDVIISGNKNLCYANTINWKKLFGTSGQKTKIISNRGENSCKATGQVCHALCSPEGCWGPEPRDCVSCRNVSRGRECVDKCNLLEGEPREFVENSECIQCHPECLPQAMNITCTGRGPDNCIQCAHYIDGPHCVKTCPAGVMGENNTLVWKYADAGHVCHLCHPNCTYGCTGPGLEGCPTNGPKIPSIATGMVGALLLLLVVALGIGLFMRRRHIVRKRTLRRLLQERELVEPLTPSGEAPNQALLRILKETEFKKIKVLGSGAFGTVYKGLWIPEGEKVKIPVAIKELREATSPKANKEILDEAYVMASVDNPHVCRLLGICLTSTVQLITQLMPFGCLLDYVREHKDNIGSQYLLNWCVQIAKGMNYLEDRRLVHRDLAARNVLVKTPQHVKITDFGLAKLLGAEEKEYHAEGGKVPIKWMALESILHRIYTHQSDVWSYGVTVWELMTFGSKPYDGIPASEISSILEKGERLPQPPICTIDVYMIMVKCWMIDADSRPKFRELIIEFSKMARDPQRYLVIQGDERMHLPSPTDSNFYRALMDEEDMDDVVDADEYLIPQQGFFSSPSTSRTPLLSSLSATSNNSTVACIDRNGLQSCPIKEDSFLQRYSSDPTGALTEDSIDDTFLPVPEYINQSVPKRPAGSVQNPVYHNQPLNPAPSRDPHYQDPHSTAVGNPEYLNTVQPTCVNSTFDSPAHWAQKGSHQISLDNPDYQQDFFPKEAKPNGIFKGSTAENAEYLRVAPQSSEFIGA
Description: The kinase activity of EGFR was assessed for 6a, 6c and 6i hybrids using EGFR kinase assay kit (BPS Bioscience, San Diego, CA, USA) based on the manufacturer’s instructions. Three independent experiments were performed for each compound and Mean ± SE were calculated.

MCF-7 = experiment: MTT anti-proliferative assay; type: cell-based, human; settings: for IC50: Homo sapiens, MCF7; for fold the activity of erlotinib: MCF-7, ratio of IC50 values
Description: (§2) The culture media were supplemented with 10% heat inactivated foetal bovine serum (FBS, HyClone, Thermo Scientific) and antibiotics (100 U/ml penicillin and 100 µg/ml streptomycin, HyClone, Thermo Scientific). The cells were incubated in a humidified atmosphere containing 5% CO2 (Heracell VIOS CO2 incubator, Thermo Scientific) in air at 37 °C.
(§3) MTT reagent, at volume equal to 10% of the culture medium volume, was added to the cultured cells and to the blank wells. The culture plates were re-incubated for 2–4 h depending on cell type and density. After the incubation period, culture plates were restored from the incubator and the obtained formazan crystals were dissolved in acidified isopropanol with continuous shaking using plate shaker (MaxQ 2000, Thermo Fisher Scientific Inc., MI, USA) at room temperature. Absorbance was measured spectrophotometrically at wavelength 570 nm using a plate reader (Stat FaxR 4200, Awareness Technology, Inc., FL, USA). […] Three independent experiments were performed for each compound and Mean ± SE were calculated.

A549 = experiment: MTT anti-proliferative assay; type: cell-based, human; settings: for IC50: Homo sapiens, A549, MTT, 24 h, mean ± SE of three experiments, read-out: IC50 (µM) ± S.E. A549; for fold the activity of erlotinib: A549, ratio of IC50 values
Description: as §2, §3

HCT-116 = experiment: MTT anti-proliferative assay; type: cell-based, human; settings: Homo sapiens, HCT-116; MTT, 24 h, mean ± SE of three experiments; read-out: IC50 (µM) ± S.E. HCT-116
Description: as §2, §3

Bcl-2 = Bcl-2 level ELISA in MCF-7 cells; type: cell-based, human; settings: for Bcl-2 Conc.(ng/ml): MCF-7, at IC50, 24 h, control 6.56 ± 0.22; for Bcl-2 FLD: MCF-7, at IC50, fold of control cells
Description: (§4) MCF-7 cells were cultured in DMEM supplied with 10% FBS and incubated in 5% CO2 in air at 37 °C. […] Cell lysate was diluted using standard diluent buffer over the range of assay. Bax and Bcl-2 content in the lysate was assessed using human Bax ELISA kit (DRG, USA) and Bcl-2 ELISA Kit (Zymed Laboratories, Invitrogen Immuno-detection, Canada), respectively, according to the manufacturer’s instructions for each kit. The results were expressed as Mean ± SE of three independent experiments.

topoisomerase II = molecular target: T3, topoisomerase II (Homo sapiens, UniProt P11388); experiment: DNA topo II inhibition assay (kDNA, agarose gel); type: biochemical; settings: 10 µM, with topo II
T3 construct: purchased Topogen, USA
T3 sequence (P11388 whole entry): as the sequence (P11388 whole entry) above
Description: Using the procedure outlined in topoisomerase II Drug Screening Kit (Topogen, USA), the effect of 6a, 6c and 6i on topoisomerase II inhibition and the effectiveness of catenated/decatenated kDNA formation were examined. The reaction mixture includes 10 mM MgCl2, 50 mM Tris-HCl, 0.5 mM dithiothreitol, […]/ml bovine serum albumin, 200–300 ng of kDNA and topoisomerase II. […] After the reaction samples were incubated for 30 min at 37 °C, the reaction was stopped by adding […] of a stop buffer containing 10% (w/v) SDS and […] of 0.5 mg/ml proteinase followed by incubating the mixture for 10 min at 37 °C. The reaction mixture was separated by 1% agarose gel and examined after being stained with ethidium bromide.

Bax = Bax level ELISA in MCF-7 cells; type: cell-based, human; settings: for Bax Conc.(pg/ml): MCF-7, at IC50, 24 h, control 83.16 ± 6.2; for Bax FLD: MCF-7, at IC50, fold of control cells
Description: as §4

[1] = MCF-7, concentration used for treatment, read-out: IC50 (Table 2)
[2] = MCF-7, concentration used for treatment, read-out: IC50 (Table 3)
[3] = MTT, 24 h, mean ± SE of three experiments, read-out: IC50 (µM) ± S.E. MCF-7

SMILES: COc1cc(-c2nc3sc4c(n3c(=O)c2C#N)C(=O)c2ccccc2C4=O)cc(OC)c1OC [Compound 6f, 4,6,11-Trioxo-2–(3,4,5-trimethoxyphenyl)-6,11-dihydro-4H-naphtho[’',’':4,5]-thiazolo[3,2-a]pyrimidine-3-carbonitrile]
IC50 (MCF-7; [3]): 29.1 ± 1.56 µM
IC50 (A549): 38.3 ± 3.21 µM
IC50 (HCT-116): 26.8 ± 1.78 µM

SMILES: COc1cccc2c1C(=O)c1c(O)c3c(c(O)c1C2=O)C[C@@](O)(C(=O)CO)C[C@@H]3O[C@H]1C[C@H](N)[C@H](O)[C@H](C)O1 [Dox, Doxorubicin, reference compound]
p53 FLD (p53): 4 fold
p53 Conc.(pg/ml) (p53): 1051 ± 22.6 pg/mL
% inhibition of topoisomerase IIα activity (topoisomerase IIα): 65.92%
concentration of topoisomerase IIα (topoisomerase IIα; compounds at their IC50, control 3.663 ± 0.09 ng/ml): 1.248 ± 0.09 ng/mL
Caspase 7 FLD (caspase-7): 23.2 fold
Caspase 7 Conc.(ng/ml) (caspase-7): 10.44 ± 0.92 ng/mL
Caspase 9 FLD (caspase-9): 6.53 fold
Caspase 9 Conc.(pg/ml) (caspase-9): 29.48 ± 0.25 pg/mL
IC50 (MCF-7; [1]): 5.62 µM
IC50 (MCF-7; [2]): 5.62 µM
IC50 (MCF-7; [3]): 5.62 ± 0.31 µM
IC50 (A549): 4.95 ± 0.29 µM
IC50 (HCT-116): 6.78 ± 0.44 µM
Bcl-2 Conc.(ng/ml) (Bcl-2): 1.66 ± 0.03 ng/mL
Bcl-2 FLD (Bcl-2): 0.25 fold
Bax Conc.(pg/ml) (Bax): 511.2 ± 6.5 pg/mL
Bax FLD (Bax): 6.14 fold

SMILES: N#Cc1c(-c2ccc(Br)cc2)nc2sc3c(n2c1=O)C(=O)c1ccccc1C3=O [Compound 6d, 2–(4-Bromophenyl)-4,6,11-trioxo-6,11-dihydro-4H-naphtho[’',’':4,5]thiazolo-[3,2-a]pyrimidine-3-carbonitrile]
IC50 (MCF-7; [3]): 5.66 ± 0.29 µM
fold the activity of erlotinib (MCF-7): 1.28 fold
fold the activity of erlotinib (A549): 1.60 fold
IC50 (A549): 3.25 ± 0.31 µM
IC50 (HCT-116): 11.77 ± 0.11 µM

SMILES: CN(C)c1ccc(-c2nc3sc4c(n3c(=O)c2C#N)C(=O)c2ccccc2C4=O)cc1 [Compound 6h, 2–(4-(Dimethylamino)phenyl)-4,6,11-trioxo-6,11-dihydro-4H-naphtho-[’',’':4,5]thiazolo[3,2-a]pyrimidine-3-carbonitrile]
IC50 (MCF-7; [3]): 37.9 ± 2.25 µM
IC50 (A549): 21.2 ± 1.23 µM
IC50 (HCT-116): 56.2 ± 4.11 µM

SMILES: N#Cc1c(-c2ccc(F)cc2)nc2sc3c(n2c1=O)C(=O)c1ccccc1C3=O [Compound 6b, 2–(4-Fluorophenyl)-4,6,11-trioxo-6,11-dihydro-4H-naphtho[’',’':4,5]thiazolo-[3,2-a]pyrimidine-3-carbonitrile]
IC50 (MCF-7; [3]): 4.78 ± 0.36 µM
fold the activity of erlotinib (MCF-7): 1.52 fold
fold the activity of erlotinib (A549): 1.23 fold
IC50 (A549): 4.2 ± 0.41 µM
IC50 (HCT-116): 11.5 ± 0.12 µM

Continued, in another order:

% inhibition of topoisomerase IIα activity (topoisomerase IIα): 11.30%
IC50 (EGFR): 0.0447 ± 0.00082 µM
IC50 (MCF-7; [1]): 4.42 µM
IC50 (MCF-7; [2]): 4.42 µM
IC50 (MCF-7; [3]): 4.42 ± 0.35 µM
IC50 (A549): 3.65 ± 0.25 µM
IC50 (HCT-116): 3.66 ± 0.39 µM
SMILES: COc1ccc(-c2nc3sc4c(n3c(=O)c2C#N)C(=O)c2ccccc2C4=O)cc1OC [Compound 6c, 2–(3,4-Dimethoxyphenyl)-4,6,11-trioxo-6,11-dihydro-4H-naphtho[’',’':4,5]-thiazolo[3,2-a]pyrimidine-3-carbonitrile]
p53 FLD (p53): 2.6 fold
p53 Conc.(pg/ml) (p53): 678 ± 42.3 pg/mL
Caspase 7 FLD (caspase-7): 4.20 fold
Caspase 7 Conc.(ng/ml) (caspase-7): 1.89 ± 0.02 ng/mL
Caspase 9 FLD (caspase-9): 3.03 fold
Caspase 9 Conc.(pg/ml) (caspase-9): 13.68 ± 0.42 pg/mL
Bcl-2 Conc.(ng/ml) (Bcl-2): 2.17 ± 0.36 ng/mL
Bcl-2 FLD (Bcl-2): 0.33 fold
linear DNA formation from catenated kDNA (topoisomerase II): the production of linear DNA was not noticed
Bax Conc.(pg/ml) (Bax): 372.7 ± 9.4 pg/mL
Bax FLD (Bax): 4.48 fold

IC50 (MCF-7; [3]): 7.26 ± 0.2 µM
IC50 (A549): 5.19 ± 0.36 µM
IC50 (HCT-116): 8.64 ± 0.18 µM
SMILES: C#Cc1cccc(Nc2ncnc3cc(OCCOC)c(OCCOC)cc23)c1 [Erlotinib, erlotinib, reference compound]

IC50 (MCF-7; [3]): 5.14 ± 0.32 µM
IC50 (A549): 5.72 ± 0.37 µM
IC50 (HCT-116): 9.81 ± 0.65 µM
SMILES: N#Cc1c(-c2ccc(Cl)cc2)nc2sc3c(n2c1=O)C(=O)c1ccccc1C3=O [Compound 6e, 2–(4-Chlorophenyl)-4,6,11-trioxo-6,11-dihydro-4H-naphtho[’',’':4,5]thiazolo-[3,2-a]pyrimidine-3-carbonitrile]

IC50 (MCF-7; [3]): 13.8 ± 1.12 µM
IC50 (A549): 42.2 ± 2.19 µM
IC50 (HCT-116): 9 ± 0.66 µM
SMILES: N#Cc1c(-c2ccccc2)nc2sc3c(n2c1=O)C(=O)c1ccccc1C3=O [Compound 6g, 4,6,11-Trioxo-2-phenyl-6,11-dihydro-4H-naphtho[’',’':4,5]thiazolo[3,2-a]-pyrimidine-3-carbonitrile]

— publication PMC10177692, “Novel topoisomerase II/EGFR dual inhibitors: design, synthesis and docking studies of naphtho[2′,3′:4,5]thiazolo[3,2-a]pyrimidine hybrids as potential anticancer agents with apoptosis inducing activity” (Journal of Enzyme Inhibition and Medicinal Chemistry, 2023)
